Experiment: Dissolution measurement of granules of Example 1 (paddle, 900 ml SGFsp, 37° C.)
Format: physicochemical
Conditions: paddle 75 rpm, 50 mg ITZ, up to 120 min
Procedure: For measuring the dissolution, granules as obtained in Example 1 were used directly without further processing. 3 samples per temperature setup were used. 500 mg 10% ITZ granulate were weighted (Mettler Toledo Delta Range XP105) which equals 50 mg ITZ API.
Dissolution was performed using a Sotax AT7 smart with an online Photometer Specord 200+ from Analytik Jena. As a medium 900 ml SGF.sp (20 g NaCl, 800 ml 0.1 M HCl ad 10.0 L VE-water) at 37° C.±0.5 was used. The following settings were used: Rotation speed 75 rpm; Paddle method; Pre-filter: Glass Mircofiber Filters GE Whatmann GF/D Diameter 25 mm, 5 mm HELMA flow-through cuvette, Sampling Points: 5,20,35,50,60,120 Min.
The granulation with polyvinyl alcohol at a temperature between 140° C. to 170° C. increases the solubility of the compound (lines 2 to 6). At 175° C. the solubility suddenly increases. With higher temperature solubility is further enhanced. An immediate release can be observed for temperatures of 180° C. to 190° C. (lines 8 to 10). With a further temperature increase above the melting temperature of PCA (line 11; 200° C.) the drug release rates are delayed.

solubility / drug release of itraconazole in the release medium (FIG. 3): very low solubility
SMILES: CCC(C)n1ncn(-c2ccc(N3CCN(c4ccc(OCC5COC(Cn6cncn6)(c6ccc(Cl)cc6Cl)O5)cc4)CC3)cc2)c1=O (stereo not shown) [crystalline itraconazole, itraconazole]

Reference: patent publication US20240189239A1, “PROCESS FOR CONTINUOUS HOT MELT GRANULATION OF LOW SOLUBLE PHARMACEUTICALS” (Merck Patent GmbH, priority 2021, published 2024)
